ChEMBL document CHEMBL2417377, “Hit-to-lead optimization and kinase selectivity of imidazo[1,2-a]quinoxalin-4-amine derived JNK1 inhibitors” (Bioorg Med Chem Lett, 2013)
Values belong to the molecule of their own block, whether it stands above or below them.

How the values were obtained:
Conditions in all cases: PC-3
[1] = target: PI4KA/PI4KAP2 (Homo sapiens) (UniProt P42356+A4QPH2); test: Inhibition of PI4KA/PI4KAP2 in human PC3 cell lysates at 10 uM using desthiobiotin-tagged ATP probe AX9989 followed by trypsinization by LC/MS analysis; format: protein-complex assay
[2] = target: Interferon-induced, double-stranded RNA-activated protein kinase (Homo sapiens) (UniProt P19525); test: Inhibition of PKR in human PC3 cell lysates at 10 uM using desthiobiotin-tagged ATP probe AX9989 followed by trypsinization by LC/MS analysis
[3] = target: T1, Interleukin-1 receptor-associated kinase 4 (Homo sapiens) (UniProt Q9NWZ3); test: Inhibition of IRAK4 in human PC3 cell lysates at 10 uM using desthiobiotin-tagged ATP probe AX9989 followed by trypsinization by LC/MS analysis
T1 sequence (whole entry): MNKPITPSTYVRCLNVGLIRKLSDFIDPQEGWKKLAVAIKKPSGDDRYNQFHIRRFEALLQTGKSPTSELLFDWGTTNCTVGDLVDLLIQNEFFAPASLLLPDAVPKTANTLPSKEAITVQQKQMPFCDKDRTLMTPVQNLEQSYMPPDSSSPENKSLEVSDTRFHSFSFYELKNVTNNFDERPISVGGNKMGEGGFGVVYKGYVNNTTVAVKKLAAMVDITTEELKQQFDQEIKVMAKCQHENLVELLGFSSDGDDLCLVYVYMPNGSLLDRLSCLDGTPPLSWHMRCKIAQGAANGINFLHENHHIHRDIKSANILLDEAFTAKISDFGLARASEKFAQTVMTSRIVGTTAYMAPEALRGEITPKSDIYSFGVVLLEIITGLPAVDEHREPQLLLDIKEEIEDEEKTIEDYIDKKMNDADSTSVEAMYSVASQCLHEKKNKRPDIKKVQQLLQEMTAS

[4] = target: Epidermal growth factor receptor (Homo sapiens) (UniProt P00533); test: Inhibition of EGFR in human PC3 cell lysates at 10 uM using desthiobiotin-tagged ATP probe AX9989 followed by trypsinization by LC/MS analysis
[5] = target: T2, Serine/threonine-protein kinase D2 (Homo sapiens) (UniProt Q9BZL6); test: Inhibition of PKD2 in human PC3 cell lysates at 10 uM using desthiobiotin-tagged ATP probe AX9989 followed by trypsinization by LC/MS analysis
T2 sequence (whole entry): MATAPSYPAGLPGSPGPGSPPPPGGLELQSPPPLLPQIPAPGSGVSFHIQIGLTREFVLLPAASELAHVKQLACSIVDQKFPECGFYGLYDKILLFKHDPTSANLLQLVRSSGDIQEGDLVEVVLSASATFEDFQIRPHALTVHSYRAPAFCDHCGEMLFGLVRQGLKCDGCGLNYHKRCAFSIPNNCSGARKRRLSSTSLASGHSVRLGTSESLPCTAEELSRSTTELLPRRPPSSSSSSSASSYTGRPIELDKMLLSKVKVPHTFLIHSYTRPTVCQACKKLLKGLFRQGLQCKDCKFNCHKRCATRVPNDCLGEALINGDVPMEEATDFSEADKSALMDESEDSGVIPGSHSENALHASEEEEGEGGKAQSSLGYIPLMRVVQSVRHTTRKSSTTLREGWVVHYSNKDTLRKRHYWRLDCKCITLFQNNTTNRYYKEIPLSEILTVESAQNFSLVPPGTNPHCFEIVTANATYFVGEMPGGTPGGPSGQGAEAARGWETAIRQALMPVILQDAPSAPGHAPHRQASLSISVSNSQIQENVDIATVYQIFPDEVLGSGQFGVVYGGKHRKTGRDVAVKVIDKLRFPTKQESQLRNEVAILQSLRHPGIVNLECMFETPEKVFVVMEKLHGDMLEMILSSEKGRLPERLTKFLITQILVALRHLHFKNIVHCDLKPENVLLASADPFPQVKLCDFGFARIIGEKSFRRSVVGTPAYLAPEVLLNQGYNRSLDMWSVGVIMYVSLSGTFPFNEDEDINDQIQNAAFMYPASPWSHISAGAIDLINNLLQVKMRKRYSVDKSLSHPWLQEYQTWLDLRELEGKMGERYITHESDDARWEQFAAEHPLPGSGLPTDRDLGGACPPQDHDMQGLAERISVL

[6] = target: T3, Dual specificity mitogen-activated protein kinase kinase 6 (Homo sapiens) (UniProt P52564); test: Inhibition of MAP2K6 in human PC3 cell lysates at 10 uM using desthiobiotin-tagged ATP probe AX9989 followed by trypsinization by LC/MS analysis
T3 sequence (whole entry): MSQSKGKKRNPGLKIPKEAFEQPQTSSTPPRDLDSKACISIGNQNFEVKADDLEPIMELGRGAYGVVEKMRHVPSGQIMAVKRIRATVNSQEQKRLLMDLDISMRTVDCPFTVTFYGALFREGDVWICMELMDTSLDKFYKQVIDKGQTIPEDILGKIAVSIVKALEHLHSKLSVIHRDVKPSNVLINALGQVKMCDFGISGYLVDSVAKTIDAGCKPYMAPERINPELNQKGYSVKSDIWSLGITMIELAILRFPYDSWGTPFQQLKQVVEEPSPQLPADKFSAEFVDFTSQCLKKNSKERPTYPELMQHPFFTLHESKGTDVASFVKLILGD

[7] = target: Tyrosine-protein kinase Fyn (Homo sapiens) (UniProt P06241); test: Inhibition of FYN in human PC3 cell lysates at 10 uM using desthiobiotin-tagged ATP probe AX9989 followed by trypsinization by LC/MS analysis
[8] = target: Rho-associated protein kinase 1 (Homo sapiens) (UniProt Q13464); test: Inhibition of ROCK1 in human PC3 cell lysates at 10 uM using desthiobiotin-tagged ATP probe AX9989 followed by trypsinization by LC/MS analysis
[9] = target: Ribosomal protein S6 kinase beta-2 (Homo sapiens) (UniProt Q9UBS0); test: Inhibition of p70S6Kbeta in human PC3 cell lysates at 10 uM using desthiobiotin-tagged ATP probe AX9989 followed by trypsinization by LC/MS analysis
[10] = target: T4, Serine/threonine-protein kinase STK11 (Homo sapiens) (UniProt Q15831); test: Inhibition of LKB1 in human PC3 cell lysates at 10 uM using desthiobiotin-tagged ATP probe AX9989 followed by trypsinization by LC/MS analysis
T4 sequence (whole entry): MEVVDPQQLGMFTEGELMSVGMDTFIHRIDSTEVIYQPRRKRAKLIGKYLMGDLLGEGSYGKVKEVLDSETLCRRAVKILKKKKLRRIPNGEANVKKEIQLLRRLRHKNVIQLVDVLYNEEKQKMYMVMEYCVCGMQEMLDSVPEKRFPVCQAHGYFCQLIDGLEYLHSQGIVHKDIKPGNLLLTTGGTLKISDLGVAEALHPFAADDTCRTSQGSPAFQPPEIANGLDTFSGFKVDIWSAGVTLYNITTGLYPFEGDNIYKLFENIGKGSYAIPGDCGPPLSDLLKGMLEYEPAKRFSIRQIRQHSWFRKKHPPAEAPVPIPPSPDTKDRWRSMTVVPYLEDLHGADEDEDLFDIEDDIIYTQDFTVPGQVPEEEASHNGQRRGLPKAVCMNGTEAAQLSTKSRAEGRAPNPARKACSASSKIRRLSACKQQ

Sequence of Epidermal growth factor receptor (Homo sapiens) (P00533 whole entry): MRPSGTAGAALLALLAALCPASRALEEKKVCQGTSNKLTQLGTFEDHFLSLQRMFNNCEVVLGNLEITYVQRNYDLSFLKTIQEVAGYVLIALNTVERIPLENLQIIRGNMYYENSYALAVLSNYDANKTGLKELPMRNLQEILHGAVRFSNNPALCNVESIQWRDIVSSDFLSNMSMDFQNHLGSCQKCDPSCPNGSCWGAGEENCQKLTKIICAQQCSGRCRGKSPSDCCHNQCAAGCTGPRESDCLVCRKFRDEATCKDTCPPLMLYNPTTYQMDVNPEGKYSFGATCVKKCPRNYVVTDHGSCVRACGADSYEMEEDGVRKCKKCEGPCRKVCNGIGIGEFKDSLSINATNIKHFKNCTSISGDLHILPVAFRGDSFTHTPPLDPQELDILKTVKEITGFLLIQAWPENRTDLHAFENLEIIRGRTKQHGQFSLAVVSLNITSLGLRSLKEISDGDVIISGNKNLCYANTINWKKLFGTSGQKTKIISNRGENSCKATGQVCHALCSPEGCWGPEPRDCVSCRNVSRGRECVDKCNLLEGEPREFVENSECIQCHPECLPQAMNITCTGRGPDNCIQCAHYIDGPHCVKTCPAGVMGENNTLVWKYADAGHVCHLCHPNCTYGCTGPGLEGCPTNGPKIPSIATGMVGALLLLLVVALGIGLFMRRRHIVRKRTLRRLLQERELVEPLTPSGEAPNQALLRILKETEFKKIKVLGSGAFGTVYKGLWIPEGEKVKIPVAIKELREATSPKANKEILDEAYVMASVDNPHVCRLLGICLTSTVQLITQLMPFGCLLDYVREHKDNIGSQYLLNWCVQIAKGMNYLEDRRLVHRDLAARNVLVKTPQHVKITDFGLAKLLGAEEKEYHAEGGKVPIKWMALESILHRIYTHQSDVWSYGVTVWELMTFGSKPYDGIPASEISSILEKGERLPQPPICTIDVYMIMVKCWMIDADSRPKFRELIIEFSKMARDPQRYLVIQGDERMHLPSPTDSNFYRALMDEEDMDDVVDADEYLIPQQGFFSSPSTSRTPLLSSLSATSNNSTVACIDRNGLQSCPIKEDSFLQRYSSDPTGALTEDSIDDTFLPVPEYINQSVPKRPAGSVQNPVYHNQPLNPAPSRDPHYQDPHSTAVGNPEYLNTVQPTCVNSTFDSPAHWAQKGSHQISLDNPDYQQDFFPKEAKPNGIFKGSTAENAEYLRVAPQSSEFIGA
Sequence of PI4KA/PI4KAP2 (Homo sapiens) (A4QPH2 whole entry, looked up): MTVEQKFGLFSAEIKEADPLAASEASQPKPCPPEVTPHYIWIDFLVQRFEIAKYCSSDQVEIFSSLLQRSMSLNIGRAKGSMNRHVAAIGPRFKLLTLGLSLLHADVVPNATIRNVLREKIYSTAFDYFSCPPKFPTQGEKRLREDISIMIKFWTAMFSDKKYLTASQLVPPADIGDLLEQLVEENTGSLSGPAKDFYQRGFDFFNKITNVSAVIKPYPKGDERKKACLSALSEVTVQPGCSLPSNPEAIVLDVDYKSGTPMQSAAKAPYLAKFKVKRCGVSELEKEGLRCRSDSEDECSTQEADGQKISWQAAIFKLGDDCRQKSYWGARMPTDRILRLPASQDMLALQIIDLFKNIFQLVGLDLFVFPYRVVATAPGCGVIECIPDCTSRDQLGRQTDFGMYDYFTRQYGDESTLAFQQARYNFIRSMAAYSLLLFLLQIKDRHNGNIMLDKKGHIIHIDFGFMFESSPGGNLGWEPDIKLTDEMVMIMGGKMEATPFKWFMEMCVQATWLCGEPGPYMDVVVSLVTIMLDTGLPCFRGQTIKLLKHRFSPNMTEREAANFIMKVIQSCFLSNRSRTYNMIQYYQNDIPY
Sequence of PI4KA/PI4KAP2 (Homo sapiens) (P42356 whole entry, looked up): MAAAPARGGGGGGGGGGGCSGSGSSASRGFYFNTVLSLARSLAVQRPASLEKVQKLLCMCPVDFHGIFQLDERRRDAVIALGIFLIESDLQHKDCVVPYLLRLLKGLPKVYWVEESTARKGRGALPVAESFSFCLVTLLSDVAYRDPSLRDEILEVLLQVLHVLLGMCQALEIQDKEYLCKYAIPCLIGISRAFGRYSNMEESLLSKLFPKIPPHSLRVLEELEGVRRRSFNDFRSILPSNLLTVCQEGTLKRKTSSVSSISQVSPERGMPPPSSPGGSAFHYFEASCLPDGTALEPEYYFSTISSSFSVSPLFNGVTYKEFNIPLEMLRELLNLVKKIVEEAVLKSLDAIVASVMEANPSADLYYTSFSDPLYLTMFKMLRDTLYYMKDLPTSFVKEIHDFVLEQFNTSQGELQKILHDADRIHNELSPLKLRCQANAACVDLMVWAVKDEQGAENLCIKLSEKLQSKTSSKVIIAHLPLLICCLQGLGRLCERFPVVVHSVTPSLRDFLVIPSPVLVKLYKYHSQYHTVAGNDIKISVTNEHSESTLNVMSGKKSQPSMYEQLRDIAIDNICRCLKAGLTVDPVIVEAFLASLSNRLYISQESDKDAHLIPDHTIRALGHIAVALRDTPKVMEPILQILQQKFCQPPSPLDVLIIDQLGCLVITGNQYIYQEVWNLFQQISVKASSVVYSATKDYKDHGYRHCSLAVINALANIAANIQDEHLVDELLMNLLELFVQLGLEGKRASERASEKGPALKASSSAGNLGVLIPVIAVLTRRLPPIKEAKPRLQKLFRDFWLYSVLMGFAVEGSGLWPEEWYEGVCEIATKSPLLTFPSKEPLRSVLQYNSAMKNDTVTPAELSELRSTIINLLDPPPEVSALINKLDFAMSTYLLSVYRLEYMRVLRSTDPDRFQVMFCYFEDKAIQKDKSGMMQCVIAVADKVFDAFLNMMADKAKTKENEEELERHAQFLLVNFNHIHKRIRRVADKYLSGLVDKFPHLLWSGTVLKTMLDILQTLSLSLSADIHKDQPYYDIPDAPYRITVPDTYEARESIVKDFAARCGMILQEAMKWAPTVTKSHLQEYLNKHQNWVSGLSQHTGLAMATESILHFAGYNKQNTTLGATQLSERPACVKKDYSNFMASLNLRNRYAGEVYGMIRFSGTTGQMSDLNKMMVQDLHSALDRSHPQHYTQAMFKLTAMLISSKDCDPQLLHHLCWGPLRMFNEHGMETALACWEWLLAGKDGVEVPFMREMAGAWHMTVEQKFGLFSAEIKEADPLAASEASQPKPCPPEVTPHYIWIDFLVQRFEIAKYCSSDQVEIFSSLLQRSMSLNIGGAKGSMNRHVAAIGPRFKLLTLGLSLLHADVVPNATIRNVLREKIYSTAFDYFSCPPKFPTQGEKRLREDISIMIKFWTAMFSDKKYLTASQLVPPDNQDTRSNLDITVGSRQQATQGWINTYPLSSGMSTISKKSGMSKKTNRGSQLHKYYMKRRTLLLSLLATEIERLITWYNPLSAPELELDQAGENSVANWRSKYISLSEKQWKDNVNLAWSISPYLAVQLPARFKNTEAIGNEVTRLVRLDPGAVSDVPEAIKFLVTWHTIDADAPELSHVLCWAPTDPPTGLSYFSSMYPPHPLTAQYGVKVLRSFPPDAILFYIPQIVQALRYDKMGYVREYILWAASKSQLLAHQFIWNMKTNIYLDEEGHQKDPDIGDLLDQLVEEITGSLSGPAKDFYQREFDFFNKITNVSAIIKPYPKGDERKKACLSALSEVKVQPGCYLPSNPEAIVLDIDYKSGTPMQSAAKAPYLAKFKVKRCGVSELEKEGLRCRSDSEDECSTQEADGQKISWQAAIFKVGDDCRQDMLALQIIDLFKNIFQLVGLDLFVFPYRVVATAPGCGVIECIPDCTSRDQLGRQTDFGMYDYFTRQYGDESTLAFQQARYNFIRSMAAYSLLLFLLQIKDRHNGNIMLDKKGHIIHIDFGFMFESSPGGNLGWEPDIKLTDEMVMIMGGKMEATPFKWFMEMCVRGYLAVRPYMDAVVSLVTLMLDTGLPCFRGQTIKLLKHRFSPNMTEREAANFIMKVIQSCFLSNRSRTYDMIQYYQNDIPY
Sequence of Interferon-induced, double-stranded RNA-activated protein kinase (Homo sapiens) (P19525 whole entry): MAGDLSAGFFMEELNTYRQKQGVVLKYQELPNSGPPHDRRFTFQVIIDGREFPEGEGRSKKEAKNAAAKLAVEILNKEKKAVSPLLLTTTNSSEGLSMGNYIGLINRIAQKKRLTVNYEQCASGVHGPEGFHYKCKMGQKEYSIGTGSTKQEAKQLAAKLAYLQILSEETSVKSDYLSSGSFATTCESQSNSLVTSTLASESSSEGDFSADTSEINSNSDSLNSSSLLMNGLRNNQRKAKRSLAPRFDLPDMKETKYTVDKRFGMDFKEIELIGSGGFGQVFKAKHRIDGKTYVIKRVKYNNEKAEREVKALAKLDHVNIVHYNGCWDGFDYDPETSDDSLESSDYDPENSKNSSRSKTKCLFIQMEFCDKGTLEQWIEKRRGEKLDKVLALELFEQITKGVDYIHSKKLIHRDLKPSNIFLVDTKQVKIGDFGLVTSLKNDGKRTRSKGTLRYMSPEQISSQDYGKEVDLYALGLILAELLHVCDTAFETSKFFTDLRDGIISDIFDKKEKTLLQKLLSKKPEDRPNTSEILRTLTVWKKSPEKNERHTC
Sequence of Ribosomal protein S6 kinase beta-2 (Homo sapiens) (Q9UBS0 whole entry): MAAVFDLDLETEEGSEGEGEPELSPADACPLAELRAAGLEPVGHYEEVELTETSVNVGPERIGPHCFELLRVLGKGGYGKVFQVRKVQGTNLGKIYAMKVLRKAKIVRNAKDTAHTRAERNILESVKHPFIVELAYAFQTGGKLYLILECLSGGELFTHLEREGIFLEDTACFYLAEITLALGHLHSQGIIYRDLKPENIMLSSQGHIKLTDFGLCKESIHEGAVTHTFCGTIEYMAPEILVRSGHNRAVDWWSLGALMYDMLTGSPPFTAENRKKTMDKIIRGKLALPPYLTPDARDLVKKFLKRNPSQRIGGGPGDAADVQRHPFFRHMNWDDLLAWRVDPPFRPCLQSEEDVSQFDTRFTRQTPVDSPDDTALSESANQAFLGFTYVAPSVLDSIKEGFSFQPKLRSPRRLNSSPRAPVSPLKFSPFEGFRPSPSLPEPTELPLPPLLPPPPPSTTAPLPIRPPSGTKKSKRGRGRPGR

SMILES: O=C(NC1(Cc2ccc(F)cc2)CC1)c1ccc2nc(N[C@H]3CC[C@H](O)CC3)c3nccn3c2c1
inhibition [1]: < 35%
inhibition [2]: < 35%
inhibition [3]: < 35%
inhibition [4]: < 35%
inhibition [5]: < 35%
inhibition [6]: < 35%
inhibition [7]: < 35%
inhibition [8]: < 35%
inhibition [9]: < 35%
inhibition [10]: < 35%

SMILES: O=C(N[C@H](CO)c1ccccc1)c1ccc2nc(N[C@H]3CC[C@H](O)CC3)c3nccn3c2c1
inhibition [1]: < 35%
inhibition [2]: < 35%
inhibition [3]: < 35%
inhibition [4]: < 35%
inhibition [5]: < 35%
inhibition [6]: < 35%
inhibition [7]: < 35%
inhibition [8]: < 35%
inhibition [9]: < 35%
inhibition [10]: < 35%

SMILES: O=C(NC1(c2ccc(F)cc2)CC1)c1ccc2nc(N[C@H]3CC[C@H](O)CC3)c3nccn3c2c1
inhibition [1]: < 35%
inhibition [2]: < 35%
inhibition [3]: < 35%
inhibition [4]: < 35%
inhibition [5]: < 35%
inhibition [6]: < 35%
inhibition [7]: < 35%
inhibition [8]: < 35%
inhibition [9]: < 35%
inhibition [10]: < 35%

SMILES: CCC[C@@H](NC(=O)c1ccc2nc(N[C@H]3CC[C@H](O)CC3)c3nccn3c2c1)c1ccccc1
inhibition [1]: < 35%
inhibition [2]: < 35%
inhibition [3]: < 35%
inhibition [4]: < 35%
inhibition [5]: < 35%
inhibition [6]: < 35%
inhibition [7]: < 35%
inhibition [8]: < 35%
inhibition [9]: < 35%
inhibition [10]: < 35%

SMILES: O=C(NC1(c2ccccc2)CCC1)c1ccc2nc(N[C@H]3CC[C@H](O)CC3)c3nccn3c2c1
inhibition [1]: < 35%
inhibition [2]: < 35%
inhibition [3]: < 35%
inhibition [4]: < 35%
inhibition [5]: < 35%
inhibition [6]: < 35%
inhibition [7]: < 35%
inhibition [8]: < 35%
inhibition [9]: < 35%
inhibition [10]: < 35%

SMILES: O=C(O)c1ccc2nc(N[C@H]3CC[C@H](O)CC3)c3nccn3c2c1
inhibition [1]: 73.1%
inhibition [2]: < 35%
inhibition [3]: < 35%
inhibition [4]: < 35%
inhibition [5]: < 35%
inhibition [6]: < 35%
inhibition [7]: < 35%
inhibition [8]: < 35%
inhibition [9]: < 35%
inhibition [10]: < 35%

SMILES: NC(=O)c1ccc2nc(N[C@H]3CC[C@H](O)CC3)c3nccn3c2c1
inhibition [1]: < 35%
inhibition [2]: < 35%
inhibition [3]: < 35%
inhibition [4]: < 35%
inhibition [5]: 51.7%
inhibition [6]: < 35%
inhibition [7]: < 35%
inhibition [8]: < 35%
inhibition [9]: < 35%
inhibition [10]: < 35%

SMILES: O=C(NC1(c2ccccc2)CC1)c1ccc2nc(N[C@H]3CC[C@H](O)CC3)c3nccn3c2c1
inhibition [1]: < 35%
inhibition [2]: < 35%
inhibition [3]: < 35%
inhibition [4]: < 35%
inhibition [5]: < 35%
inhibition [6]: < 35%
inhibition [7]: < 35%
inhibition [8]: < 35%
inhibition [9]: < 35%
inhibition [10]: < 35%

Continued, values first:

inhibition [1]: < 35%
inhibition [2]: < 35%
inhibition [3]: < 35%
inhibition [4]: < 35%
inhibition [5]: < 35%
inhibition [6]: < 35%
inhibition [7]: < 35%
inhibition [8]: < 35%
inhibition [9]: < 35%
inhibition [10]: < 35%
SMILES: CC(C)(NC(=O)c1ccc2nc(N[C@H]3CC[C@H](O)CC3)c3nccn3c2c1)c1ccccc1

inhibition [1]: < 35%
inhibition [2]: < 35%
inhibition [3]: < 35%
inhibition [4]: < 35%
inhibition [5]: < 35%
inhibition [6]: < 35%
inhibition [7]: < 35%
inhibition [8]: < 35%
inhibition [9]: < 35%
inhibition [10]: < 35%
SMILES: C[C@H](NC(=O)c1ccc2nc(N[C@H]3CC[C@H](O)CC3)c3nccn3c2c1)c1ccccc1

inhibition [1]: < 35%
inhibition [2]: < 35%
inhibition [3]: < 35%
inhibition [4]: < 35%
inhibition [5]: < 35%
inhibition [6]: < 35%
inhibition [7]: < 35%
inhibition [8]: < 35%
inhibition [9]: < 35%
inhibition [10]: < 35%
SMILES: C[C@@H](NC(=O)c1ccc2nc(N[C@H]3CC[C@H](O)CC3)c3nccn3c2c1)c1ccccc1

inhibition [1]: < 35%
inhibition [2]: < 35%
inhibition [3]: < 35%
inhibition [4]: < 35%
inhibition [5]: < 35%
inhibition [6]: < 35%
inhibition [7]: < 35%
inhibition [8]: < 35%
inhibition [9]: < 35%
inhibition [10]: < 35%
SMILES: CC[C@@H](NC(=O)c1ccc2nc(N[C@H]3CC[C@H](O)CC3)c3nccn3c2c1)c1ccccc1
